Experimental data reported in ChEMBL document CHEMBL1201862, “PubChem BioAssay data set” (2004).
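Protocol summary: plate cells (96-well), add compound at 5 concentrations, incubate 48 h, interpolate endpoints linearly. Here, GI50 denotes the concentration required for 50% inhibition of growth.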 Calls of active or inactive are those of the source. No stated cut-off is given here; in the data, active = GI50 up to about 1.1 µM and inactive = higher.

Assays:
Assay in all cases: DTP human tumour cell line panel, 48 h
786-0 = tested on: 786-0
A498 = tested on: A498
A549 = tested on: A549
ACHN = tested on: ACHN
BT-549 = tested on: BT-549
CAKI-1 = tested on: CAKI-1
CCRF-CEM = tested on: CCRF-CEM
COLO 205 = tested on: COLO 205
DU-145 = tested on: DU-145
EKVX = tested on: EKVX
HCC 2998 = tested on: HCC 2998
HCT-116 = tested on: HCT-116
HCT-15 = tested on: HCT-15
HL-60 = tested on: HL-60
HOP-62 = tested on: HOP-62
HOP-92 = tested on: HOP-92
HT-29 = tested on: HT-29
Hs-578T = tested on: Hs-578T
IGROV-1 = tested on: IGROV-1
K562 = tested on: K562
KM12 = tested on: KM12
LOX IMVI = tested on: LOX IMVI
M14 = tested on: M14
MCF7 = tested on: MCF7
MDA-MB-231 = tested on: MDA-MB-231
MDA-MB-435 = tested on: MDA-MB-435
MDA-N = tested on: MDA-N
MOLT-4 = tested on: MOLT-4
Malme-3M = tested on: Malme-3M
NCI-H226 = tested on: NCI-H226
NCI-H23 = tested on: NCI-H23
NCI-H460 = tested on: NCI-H460
NCI-H522 = tested on: NCI-H522
NCI/ADR-RES = tested on: NCI/ADR-RES
OVCAR-3 = tested on: OVCAR-3
OVCAR-4 = tested on: OVCAR-4
OVCAR-5 = tested on: OVCAR-5
OVCAR-8 = tested on: OVCAR-8
PC-3 = tested on: PC-3
RPMI-8226 = tested on: RPMI-8226
RXF 393 = tested on: RXF 393
SF-268 = tested on: SF-268
SF-295 = tested on: SF-295
SF-539 = tested on: SF-539
SK-MEL-28 = tested on: SK-MEL-28
SK-MEL-2 = tested on: SK-MEL-2
SK-MEL-5 = tested on: SK-MEL-5
SK-OV-3 = tested on: SK-OV-3
SN12C = tested on: SN12C
SNB-19 = tested on: SNB-19
SNB-75 = tested on: SNB-75
SR = tested on: SR
SW-620 = tested on: SW-620
T47D = tested on: T47D
TK-10 = tested on: TK-10
U-251 = tested on: U-251
UACC-257 = tested on: UACC-257
UACC-62 = tested on: UACC-62
UO-31 = tested on: UO-31

Measured: GI50

CNc1cccnc1/C=N/N=C(/N)S
2780 nM: HCT-15
inactive: A498 5350 nM | A549 2610 nM | BT-549 1710 nM | CAKI-1 3480 nM | COLO 205 2130 nM | EKVX 4390 nM | HCC 2998 1820 nM | HCT-116 1220 nM | HOP-62 3110 nM | HT-29 2450 nM | Hs-578T > 10000 nM | IGROV-1 > 5550 nM | K562 > 4760 nM | KM12 4520 nM | LOX IMVI 2020 nM | M14 1370 nM | MDA-MB-231 6380 nM | MDA-MB-435 2410 nM | MDA-N 4690 nM | MOLT-4 1500 nM | Malme-3M 1950 nM | NCI-H226 2750 nM | NCI-H460 2460 nM | NCI-H522 2470 nM | NCI/ADR-RES 3010 nM | OVCAR-3 2170 nM | OVCAR-4 4090 nM | OVCAR-5 3890 nM | PC-3 1690 nM | RPMI-8226 > 4590 nM | RXF 393 1150 nM | SF-295 2000 nM | SK-MEL-28 7740 nM | SK-MEL-2 9890 nM | SK-MEL-5 3200 nM | SK-OV-3 4490 nM | SN12C 1330 nM | SNB-19 > 10000 nM | SR > 2840 nM | SW-620 3050 nM | T47D 2700 nM | TK-10 8650 nM | U-251 1870 nM | UACC-257 > 10000 nM | UO-31 1780 nM
active: 786-0 380 nM | ACHN 332 nM | CCRF-CEM 363 nM | DU-145 685 nM | HL-60 564 nM | HOP-92 849 nM | MCF7 471 nM | NCI-H23 403 nM | OVCAR-8 675 nM | SF-268 612 nM | SF-539 279 nM | SNB-75 863 nM | UACC-62 379 nM
